Measured values published in patent US9605005B2, “Alkynyl alcohols and methods of use” (Genentech, Inc., priority 2013, dated 2017).

Target: nuclear factor-kappa B (NF-kB)-inducing kinase (NIK) (Homo sapiens (Human), UniProt Q99558)
Assay: NIK enzyme inhibition assay (Transcreener ADP, NIK ADP-FP)
Type: biochemical
Conditions: purified NIK 0.5 nM, 10 μM ATP, fluorescence polarization; read-out: NIK ADP-FP (Ki μM)

nuclear factor-kappa B (NF-kB)-inducing kinase (NIK), sequence (Q99558 whole entry): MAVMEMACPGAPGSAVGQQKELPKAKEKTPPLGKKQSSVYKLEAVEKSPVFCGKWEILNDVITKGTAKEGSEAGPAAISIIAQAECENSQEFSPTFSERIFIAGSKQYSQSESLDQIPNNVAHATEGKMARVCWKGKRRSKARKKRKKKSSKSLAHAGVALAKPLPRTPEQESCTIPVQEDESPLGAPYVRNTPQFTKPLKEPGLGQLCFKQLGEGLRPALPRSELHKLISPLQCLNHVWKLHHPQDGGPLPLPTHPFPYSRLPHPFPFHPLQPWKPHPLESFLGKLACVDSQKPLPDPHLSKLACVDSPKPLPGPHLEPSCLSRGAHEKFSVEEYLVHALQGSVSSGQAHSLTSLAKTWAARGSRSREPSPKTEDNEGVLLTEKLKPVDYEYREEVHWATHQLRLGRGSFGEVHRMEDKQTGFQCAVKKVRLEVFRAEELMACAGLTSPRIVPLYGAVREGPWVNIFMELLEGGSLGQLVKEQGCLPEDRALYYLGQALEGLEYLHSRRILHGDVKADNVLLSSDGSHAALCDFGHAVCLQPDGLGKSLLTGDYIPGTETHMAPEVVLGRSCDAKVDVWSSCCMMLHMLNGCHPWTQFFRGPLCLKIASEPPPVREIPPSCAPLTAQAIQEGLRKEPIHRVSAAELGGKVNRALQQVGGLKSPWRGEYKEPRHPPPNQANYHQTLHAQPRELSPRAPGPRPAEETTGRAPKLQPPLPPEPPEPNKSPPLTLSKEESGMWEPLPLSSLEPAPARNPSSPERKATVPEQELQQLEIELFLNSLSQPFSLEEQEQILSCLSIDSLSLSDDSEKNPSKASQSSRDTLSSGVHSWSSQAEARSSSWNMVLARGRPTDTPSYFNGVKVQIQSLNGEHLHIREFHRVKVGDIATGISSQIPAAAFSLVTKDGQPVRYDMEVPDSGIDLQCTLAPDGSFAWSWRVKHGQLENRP

SMILES	Ki [nM]
CN1CC[C@@](O)(C#Cc2cccc(-n3nc(C(N)=O)c4c3CS(=O)(=O)CC4)c2)C1=O [Compound 68, 1-[3-[2-[(3R)-3-hydroxy-1-methyl-2-oxo-pyrrolidin-3-yl]ethynyl]phenyl]-6,6-dioxo-5,7-dihydro-4H-thiopyra-no[3,4-c]pyrazole-3-carbox-amide]	237
Cc1cc(C(N)=O)nn1-c1cc(C#C[C@]2(O)CCN(C)C2=O)ccn1 [Compound 79, 1-[4-[2-[(3R)-3-hydroxy-1-methyl-2-oxo-pyrrolidin-3-yl]ethynyl]-2-pyridyl]-5-meth-yl-pyrazole-3-carboxamide]	10.8
Cc1cc([C@](C)(O)C#Cc2ccnc(-n3nc(C(N)=O)cc3C)c2)no1 [Compound 80, 1-[4-[(3R)-3-hydroxy-3-(5-methylisoxazol-3-yl)but-1-ynyl]-2-pyridyl]-5-methyl-pyrazole-3-carboxamide]	84.5
Cc1cc([C@](C)(O)C#Cc2ccnc(-n3nc(C(N)=O)c(Cl)c3C)c2)no1 [Compound 82, 4-chloro-1-[4-[(3R)-3-hydroxy-3-(5-methylisoxazol-3-yl)but-1-ynyl]-2-pyridyl]-5-methyl-pyrazole-3-carboxamide]	99.1
CN1CC[C@@](O)(C#Cc2cccc(-c3nc(C(N)=O)c4n3CCCC4)c2)C1=O [Compound 84, 3-[3-[2-[(3R)-3-hydroxy-1-methyl-2-oxo-pyrrolidin-3-yl]ethynyl]phenyl]-5,6,7,8-tetra-hydroimidazo[1,5-a]pyri-dine-1-carboxamide]	33.9
CN1CC[C@@](O)(C#Cc2cccc(-c3nc(C(N)=O)n4c3NCC4)c2)C1=O [Compound 87, 7-[3-[2-[(3R)-3-hydroxy-1-methyl-2-oxo-pyrrolidin-3-yl]ethynyl]phenyl]-2,3-dihy-dro-1H-imidazo[1,5-a]imida-zole-5-carboxamide]	20.4
Cc1cn(-c2ccc3c(c2)c(C(N)=O)nn3-c2cccc(C#C[C@]3(O)CCN(C)C3=O)c2)cn1 [Compound 106, 1-[3-[2-[(3R)-3-hydroxy-1-methyl-2-oxo-pyrrolidin-3-yl]ethynyl]phenyl]-5-(4-meth-ylimidazol-1-yl)indazole-3-carboxamide]	0.05
CC(=O)N1CC(c2cnc3c(c2)c(C(N)=O)nn3-c2cccc(C#C[C@]3(O)CCN(C)C3=O)c2)C1 [Compound 107, 5-(1-acetylazetidin-3-yl)-1-[3-[2-[(3R)-3-hydroxy-1-meth-yl-2-oxo-pyrrolidin-3-yl]ethynyl]phenyl]pyrazolo[3,4-b]pyridine-3-carboxamide]	1.82
CN1CC[C@@](O)(C#Cc2cccc(-n3nc(C(N)=O)c4[nH]c(=O)ccc43)c2)C1=O [Compound 108, 1-[3-[2-[(3R)-3-hydroxy-1-methyl-2-oxo-pyrrolidin-3-yl]ethynyl]phenyl]-5-oxo-4H-pyrazolo[4,3-b]pyridine-3-carboxamide]	0.24
CNC(=O)c1ccc2c(c1)c(C(N)=O)nn2-c1cccc(C#C[C@]2(O)CCN(C)C2=O)c1 [Compound 112, 1-[3-[2-[(3R)-3-hydroxy-1-methyl-2-oxo-pyrrolidin-3-yl]ethynyl]phenyl]-N5-meth-yl-indazole-3,5-dicarbox-amide]	0.08
NC(=O)c1nn(-c2cccc(C#C[C@@]3(O)CCCC3=O)c2)c2ccccc12 [Compound 115, 1-[3-[2-[(1S)-1-hydroxy-2-oxo-cyclopentyl]ethynyl]phe-nyl]indazole-3-carboxamide]	86.1
NC(=O)c1nn(-c2cccc(C#C[C@]3(O)CCCC3=O)c2)c2ccccc12 [Compound 116, 1-[3-[2-[(1R)-1-hydroxy-2-oxo-cyclopentyl]ethynyl]phe-nyl]indazole-3-carboxamide]	0.63
C[C@](O)(C#Cc1cccc(-n2nc(C(N)=O)c3ccccc32)c1)c1c[nH]nn1 [Compound 118, 1-[3-[(3S)-3-hydroxy-3-(1H-triazol-4-yl)but-1-ynyl]phenyl]indazole-3-carboxamide]	16.6
CN1CC[C@@](O)(C#Cc2cccc(-n3nc(C(N)=O)c4c3CCN([S@@+](C)[O-])C4)c2)C1=O [Compound 123, 1-[3-[2-[(3R)-3-hydroxy-1-methyl-2-oxo-pyrrolidin-3-yl]ethynyl]phenyl]-5-[(R)-methylsulfinyl]-6,7-dihydro-4H-pyrazolo[4,3-c]pyridine-3-carboxamide]	18
CN1CC[C@@](O)(C#Cc2cccc(-n3nc(C(N)=O)c4c3CCN([S@+](C)[O-])C4)c2)C1=O [Compound 124, 1-[3-[2-[(3R)-3-hydroxy-1-methyl-2-oxo-pyrrolidin-3-yl]ethynyl]phenyl]-5-[(S)-methylsulfinyl]-6,7-dihydro-4H-pyrazolo[4,3-c]pyridine-3-carboxamide]	46.4
CN1C[C@H](O)[C@@](O)(C#Cc2cccc(-n3nc(C(N)=O)c4ccccc43)c2)C1=O [Compound 125, 1-[3-[2-[(3S,4S)-3,4-dihydroxy-1-methyl-2-oxo-pyrroli-din-3-yl]ethynyl]phenyl]in-dazole-3-carboxamide]	19.6

SMILES	Ki [nM]
CN1C[C@@H](O)[C@@](O)(C#Cc2cccc(-n3nc(C(N)=O)c4ccccc43)c2)C1=O [Compound 126, 1-[3-[2-[(3S,4R)-3,4-dihydroxy-1-methyl-2-oxo-pyrroli-din-3-yl]ethynyl]phenyl]inda-zole-3-carboxamide]	591
CN1C[C@@H](O)[C@](O)(C#Cc2cccc(-n3nc(C(N)=O)c4ccccc43)c2)C1=O [Compound 127, 1-[3-[2-[(3R,4R)-3,4-dihydroxy-1-methyl-2-oxo-pyrroli-din-3-yl]ethynyl]phenyl]inda-zole-3-carboxamide]	10.2
CN1C[C@H](O)[C@](O)(C#Cc2cccc(-n3nc(C(N)=O)c4ccccc43)c2)C1=O [Compound 128, 1-[3-[2-[(3R,4S)-3,4-dihydroxy-1-methyl-2-oxo-pyrroli-din-3-yl]ethynyl]phenyl]inda-zole-3-carboxamide]	1250
CN1CC[C@@](O)(C#Cc2cccc(-n3nc(C(N)=O)c4cnc(C#N)cc43)c2)C1=O [Compound 133, 6-cyano-1-[3-[2-[(3R)-3-hy-droxy-1-methyl-2-oxo-pyrroli-din-3-yl]ethynyl]phenyl] pyrazolo[4,3-c]pyridine-3-carboxamide]	1.31
N#Cc1cc2c(cn1)c(C(N)=O)nn2-c1cccc(C#C[C@]2(O)CCc3cccnc32)c1 [Compound 134, 6-cyano-1-[3-[2-[(7R)-7-hy-droxy-5,6-dihydrocyclopen-ta[b]pyridin-7-yl]ethynyl]phe-nyl]pyrazolo[4,3-c]pyridine-3-carboxamide]	1250
CN1CC[C@@](O)(C#Cc2cccc(-n3nc(C(N)=O)c4cnc(N5CC[C@@H](O)C5)cc43)c2)C1=O [Compound 138, 1-[3-[2-[(3R)-3-hydroxy-1-methyl-2-oxo-pyrrolidin-3-yl]ethynyl]phenyl]-6-[(3R)-3-hydroxypyrrolidin-1-yl]pyra-zolo[4,3-c]pyridine-3-carbox-amide]	0.19
CN1CC[C@@](O)(C#Cc2cccc(-n3nc(C(N)=O)c4cnc(N5CC[C@H](O)C5)cc43)c2)C1=O [Compound 139, 1-[3-[2-[(3R)-3-hydroxy-1-methyl-2-oxo-pyrrolidin-3-yl]ethynyl]phenyl]-6-[(3S)-3-hydroxypyrrolidin-1-yl]pyra-zolo[4,3-c]pyridine-3-carbox-amide]	0.39
CN(Cc1ccc2c(c1)c(C(N)=O)nn2-c1cc(C#C[C@]2(O)CCN(C)C2=O)ccn1)C(=O)CCCN [Compound 141, 5-[[4-aminobutanoyl(meth-yl)amino]methyl]-1-[4-[2-[(3R)-3-hydroxy-1-methyl-2-oxo-pyrrolidin-3-yl]ethynyl]-2-pyridyl]indazole-3-carbox-amide]	3.27
CN1CC[C@](O)(C#Cc2cccc(-n3nc(C(N)=O)c4c3C(=O)NC4)c2)C1=O [Compound 143, 1-[3-[2-[(3S)-3-hydroxy-1-methyl-2-oxo-pyrrolidin-3-yl]ethynyl]phenyl]-6-oxo-4,5-dihydropyrrolo[3,4-c]pyra-zole-3-carboxamide]	1.54
CN(C)C(=O)C(O)C#Cc1cccc(-n2nc(C(N)=O)c3ccccc32)c1 (centres unmarked) [Compound 163, 1-[3-[4-(dimethyalmino)-3-hydroxy-4-oxo-but-1-ynyl]phenyl]indazole-3-carboxamide]	250
CN1CC[C@@](O)(C#Cc2cccc(-n3nc(C(N)=O)c4c3[C@@H](O)CC4)c2)C1=O [Compound 168, (6S)-6-hydroxy-1-[3-[2-[(3R)-3-hydroxy-1-methyl-2-oxo-pyrrolidin-3-yl]ethynyl]phenyl]-5,6-dihydro-4H-cyclo-penta[c]pyrazole-3-carbox-amide]	33.7
NC(=O)c1nn(-c2cccc(C#C[C@]3(O)CCOC3=O)c2)c2ccccc12 [Compound 171, 1-[3-[2-[(3R)-3-hydroxy-2-oxo-tetrahydrofuran-3-yl]eth-ynyl]phenyl]indazole-3-carbox-amide]	8.12
NC(=O)c1nn(-c2cccc(C#C[C@@]3(O)CCOC3=O)c2)c2ccccc12 [Compound 172, 1-[3-[2-[(3)S-3-hydroxy-2-oxo-tetrahydrofuran-3-yl]eth-ynyl]phenyl]indazole-3-carbox-amide]	473
CN1CC[C@@](O)(C#Cc2cccc(-n3nc(C(N)=O)c4cccc(F)c43)c2)C1=O [Compound 176, 7-fluoro-1-[3-[2-[(3R)-3-hydroxy-1-methyl-2-oxo-pyrrolidin-3-yl]ethynyl]phenyl] indazole-3-carboxamide]	1.27
CN1CC[C@@](O)(C#Cc2cccc(-c3nc(C(N)=O)c4ccc(C(N)=O)cn34)c2)C1=O [Compound 179, 3-[3-[2-[(3R)-3-hydroxy-1-methyl-2-oxo-pyrrolidin-3-yl]ethynyl]phenyl]imidazo [1,5-a]pyridine-1,6-dicarboxamide]	11.1
CN1CC[C@@](O)(C#Cc2cccc(-n3nc(C(N)=O)c4c3CCC(=O)N4)c2)C1=O [Compound 180, 1-[3-[2-[(3R)-3-hydroxy-1-methyl-2-oxo-pyrrolidin-3-yl]ethynyl]phenyl]-5-oxo-6,7-dihydro-4H-pyrazolo [4,3-b]pyridine-3-carboxamide]	0.35
